Measured values published in BigSolDB 2.1.

CCc1occc(=O)c1O
solubility (mole fraction)
Settings | 293.15 K | 298.15 K | 303.15 K | 308.15 K | 313.15 K | 318.15 K | 323.15 K | 328.15 K | 333.15 K
in ethanol | 0.0599 | 0.0798 | 0.0974 | 0.133 | 0.174 | 0.227 | 0.291 | 0.367 | 0.459
in water | 0.0021 | 0.0023 | 0.0027 | 0.0033 | 0.004 | 0.0051 | 0.0067 | 0.0089 | 0.0126
